# Patent publication US20050250725A1, “Regulation of the P21 gene and uses thereof” (priority 2000, published 2005)
# How the values were obtained:
# [1] = tested on: renal p21 expression; experiment: Renal p21 expression after cisplatin administration; assay type: in vivo
# Description: The present invention examined the effect of p21 in protecting the renal function from cisplatin induced damage. An increase in renal p21 expression was observed after ischemia-reperfusion, urinary tract obstruction and cisplatin administration (FIG. 7). Further, to assess the significance of p21 in renal function, blood urea nitrogen was measured in mice with and without p21 gene subsequent to cisplatin administration. It was observed that the blood urea nitrogen for mice lacking the p21 gene was retained to a higher degree than the mice with p21 gene (FIG. 8).
# [2] = tested on: renal cells; assay type: cell-based
# Description: Percent apoptosis is also indicated.
# Next, the cytoprotective effect of histone deacetylase inhibitors such as phenylbutyrate on renal cells was examined. Cells were control cells, or exposed to cisplatin (50 uM) alone, to phenylbutyrate (100 uM) or to phenybutyrate and cisplatin.
compound,measurement,setting,value
N.N.[Cl][Pt][Cl] [cisplatin],renal p21 expression,[1],increase
phenylbutyrate,protection from cisplatin-induced apoptosis,"[2]; prior exposure to phenylbutyrate, then cisplatin",protected from apoptosis
same,distribution of DNA,[2]; renal cells exposed to phenylbutyrate 100 uM and cisplatin 50 uM,normal distribution of DNA
